Reference: ChEMBL document CHEMBL1132679, “Highly increased cellular accumulation of vincristine, a useful hydrophobic antitumor-drug, in multidrug-resistant solid cancer cells induced by a simply reduced taxinine” (1999)

Experiment: Relative activity on the cellular accumulation of vincristine in multidrug-resistant (MDR) human ovarian cancer 2780AD cells
Type: functional, A2780 ADR

SMILES	Relative activity
COc1ccc(CCN(C)CCCC(C#N)(c2ccc(OC)c(OC)c2)C(C)C)cc1OC (stereo not given) [VERAPAMIL]	100
C=C1[C@@H](O)CC[C@@]2(C)[C@@H](OC(C)=O)[C@H](OC(C)=O)C3=C(C)C(=O)C[C@@H]([C@@H](OC(C)=O)[C@H]12)C3(C)C [TAXININE A]	64
C=C1[C@@H](OC(=O)CCc2ccccc2)CC[C@@]2(C)[C@@H](OC(C)=O)[C@H](OC(C)=O)C3=C(C)C(=O)C[C@@H]([C@@H](OC(C)=O)[C@H]12)C3(C)C	227
C=C1[C@@H](OCOCc2ccccc2)CC[C@@]2(C)[C@@H](OC(C)=O)[C@H](OC(C)=O)C3=C(C)C(=O)C[C@@H]([C@@H](OC(C)=O)[C@H]12)C3(C)C	158
CC(=O)O[C@H]1[C@@H]2[C@H](C)[C@@H](O)CC[C@@]2(C)[C@@H](OC(C)=O)[C@H](OC(C)=O)C2=C(C)C(=O)C[C@@H]1C2(C)C	48
CC(=O)O[C@H]1[C@@H]2[C@H](C)[C@@H](OC(=O)CCc3ccccc3)CC[C@@]2(C)[C@@H](OC(C)=O)[C@H](OC(C)=O)C2=C(C)C(=O)C[C@@H]1C2(C)C	44
CC(=O)O[C@H]1[C@@H]2[C@H](C)[C@@H](OC(=O)/C=C/c3ccccc3)CC[C@@]2(C)[C@@H](OC(C)=O)[C@H](OC(C)=O)C2=C(C)C(=O)C[C@@H]1C2(C)C	44
C=C1[C@@H](OC(C)=O)CC[C@@]2(C)[C@@H](OC(C)=O)[C@H](OC(C)=O)C3=C(C)C(=O)C[C@@H]([C@@H](OC(C)=O)[C@H]12)C3(C)C	93
C=C1[C@@H](OC(=O)CCC2CCCCC2)CC[C@@]2(C)[C@@H](OC(C)=O)[C@H](OC(C)=O)C3=C(C)C(=O)C[C@@H]([C@@H](OC(C)=O)[C@H]12)C3(C)C	97
C=C1[C@@H](OC(=O)/C=C/c2ccccc2)CC[C@@]2(C)[C@@H](OC(C)=O)[C@H](OC(C)=O)C3=C(C)C(=O)C[C@@H]([C@@H](OC(C)=O)[C@H]12)C3(C)C	77
